# Source: patent US12521375B2, “Pharmaceutical composition for treating fatty liver disease” (Shionogi & Co., Ltd., priority 2020, dated 2026)
# Columns and labels:
# recombinant human ACC2 = recombinant human ACC2 (Homo sapiens (Human), UniProt O00763); test: Measurement of inhibitory activity of human ACC2; format: biochemical; conditions: read-out: IC50 hACC2
# Description: A cDNA encoding human ACC2 protein (27 amino acid residues to 2458 amino acid residues from the N-terminus) was cloned from a human kidney cDNA library (Clontech Laboratories, Inc.), a His-tag sequence was introduced at the 5′ end, and then inserted into pFastBac1 (Invitrogen). A recombinant baculovirus was produced in accordance with the protocol for a Bac-to-Bac baculovirus expression system (Invitrogen), and Sf-9 cells were infected therewith to express human ACC2 protein. The recovered cells were crushed, filtered through a filter, and then subjected to Ni affinity chromatography and anion exchange chromatography. Fractions containing human ACC2 protein were collected to obtain recombinant human ACC2.
# The recombinant human ACC1 and the recombinant human ACC2 obtained from the above Preparation Examples were preincubated in an assay buffer (50 mM HEPES-KOH (pH 7.4), 10 mM magnesium chloride, 6 to 10 mM potassium citrate, 4 mM reduced glutathione, and 1.5 mg/ml bovine serum albumin) for 1 hour. […] After incubation, the enzymatic reaction was stopped by addition of EDTA, and then the compound was co-crystallized with an α-cyano-4-hydroxy cinnamic acid (CHCA) matrix on a MALDI target plate, and measurement was performed in a reflector negative mode using a matrix-assisted laser desorption ionization-time-of-flight mass spectrometer (MALDI-TOF MS). Deprotonated ions of the substrate acetyl-CoA (AcCoA) and the reaction product malonyl-CoA (MalCoA) were detected, and the intensity of each signal was used to calculate a conversion rate to malonyl-CoA […], i.e., intensity of [MalCoA-H]-/(intensity of [MalCoA-H]-+intensity of [AcCoA-H]-). […] The potassium citrate concentration in the assay buffer, the potassium bicarbonate concentration in the substrate solution, and the incubation time were adjusted within the above concentrations or reaction times for each lot of the enzyme to be used.
# Tissue distribution test = format: in vivo, Crl:CD (SD) rats; conditions: rats, intravenous 0.5 mg/kg, 30 minutes after administration
# Procedure: To 8-week-old male Crl:CD (SD) rats, the compound of the present invention was intravenously administered at a dose of 0.5 mg/mL/kg under non-fasted conditions, and 30 minutes after administration, the rats were killed by exsanguination through whole blood collection from the abdominal aorta under anesthesia. Then, the liver and muscles were removed, and a 25% homogenate was prepared with distilled water. The obtained blood was centrifuged, and plasma was then obtained. Then, control plasma and control tissue homogenate were added to the tissue homogenate sample and the plasma sample, respectively, at 1:1, and each sample was measured using LC/MS/MS. The measured area ratio (tissue/plasma) obtained was used as a tissue Kp value. For compound I-12, the value was 6.10 in the liver and 1.29 in muscles, and for compound I-13, the value was 4.06 in the liver and 0.918 in muscles. Therefore, the compound of the present invention has a property of being distributed in the liver and muscles in vivo.
# [1] = test system: Malonyl-CoA concentration in organ; test: Test for evaluating malonyl-CoA concentration in liver and muscles; format: in vivo, BKS.Cg-+Lepr^db/+Lepr^db/Jcl mice; conditions: for Malonyl-CoA concentration in organ with vehicle administration group defined as 100%, Liver / Malonyl-CoA concentration in organ with vehicle administration group defined as 100%, Muscle: 2 hours after administration; for malonyl-CoA concentrations in the liver and muscles (in words): 0.3 to 6 mg/kg oral
# Procedure: Eight-week-old male BKS.Cg-+Lepr^db/+Lepr^db/Jcl mice were fasted for 4 hours, then the compound of the present invention was orally administered at a dose of 0.3 to 6 mg/5 mL/kg, and 2 hours after administration, the mice were killed by exsanguination through whole blood collection from the abdominal vena cava under anesthesia. Then, the liver and muscles were removed, and a 9% homogenate was prepared in a homogenizing buffer (distilled water: 60% perchloric acid: 85% phosphoric acid=43:5:2). The malonyl-CoA concentration in the tissue was quantified by LC/MS/MS.
# [2] = test system: mice fed an ultra-high fat, choline-deficient, methionine-lowered diet; test: Effect on liver fibrosis progression in mice fed ultra-high fat, choline-deficient, methionine-lowered diet; format: in vivo, C57BL/6JJcl mice; design: 3-hydroxybutyric acid in plasma: unit not given here; conditions: for Amount of triglyceride in liver / Sirius red-positive area rate / 3-hydroxybutyric acid in plasma / Plasma triglyceride concentration: bid; for Amount of triglyceride in liver / Sirius red-positive area rate: oral, 8 weeks; for gene expression level in the liver, Fasn / gene expression level in the liver, Srebf1: vehicle = 1.00
# Procedure: Six-week-old male C57BL/6JJcl mice were fed an ultra-high fat, choline-deficient, methionine-lowered diet (60 kcal % fat content, using lard, choline-deficient, methionine-lowered (0.1%)), and at the same time, the compound of the present invention was suspended in a vehicle (0.5% methylcellulose aqueous solution) so as to have a dose of 3 to 45 mg/kg/10 mL, and orally repeatedly administered (b.i.d.) for 8 weeks. Blood was collected from the tail vein during the repeated administration period, and biochemical parameters in plasma were measured. After 8 weeks of administration, blood was collected from the abdominal vena cava under anesthesia, and then the liver was collected. Paraffin-embedded sections prepared from the collected liver were subjected to Sirius red staining. A degree of fibrosis progression in the liver was determined from a Sirius red-positive area rate and evaluated.
# Chain of recombinant human ACC2 (O00763 27-2458): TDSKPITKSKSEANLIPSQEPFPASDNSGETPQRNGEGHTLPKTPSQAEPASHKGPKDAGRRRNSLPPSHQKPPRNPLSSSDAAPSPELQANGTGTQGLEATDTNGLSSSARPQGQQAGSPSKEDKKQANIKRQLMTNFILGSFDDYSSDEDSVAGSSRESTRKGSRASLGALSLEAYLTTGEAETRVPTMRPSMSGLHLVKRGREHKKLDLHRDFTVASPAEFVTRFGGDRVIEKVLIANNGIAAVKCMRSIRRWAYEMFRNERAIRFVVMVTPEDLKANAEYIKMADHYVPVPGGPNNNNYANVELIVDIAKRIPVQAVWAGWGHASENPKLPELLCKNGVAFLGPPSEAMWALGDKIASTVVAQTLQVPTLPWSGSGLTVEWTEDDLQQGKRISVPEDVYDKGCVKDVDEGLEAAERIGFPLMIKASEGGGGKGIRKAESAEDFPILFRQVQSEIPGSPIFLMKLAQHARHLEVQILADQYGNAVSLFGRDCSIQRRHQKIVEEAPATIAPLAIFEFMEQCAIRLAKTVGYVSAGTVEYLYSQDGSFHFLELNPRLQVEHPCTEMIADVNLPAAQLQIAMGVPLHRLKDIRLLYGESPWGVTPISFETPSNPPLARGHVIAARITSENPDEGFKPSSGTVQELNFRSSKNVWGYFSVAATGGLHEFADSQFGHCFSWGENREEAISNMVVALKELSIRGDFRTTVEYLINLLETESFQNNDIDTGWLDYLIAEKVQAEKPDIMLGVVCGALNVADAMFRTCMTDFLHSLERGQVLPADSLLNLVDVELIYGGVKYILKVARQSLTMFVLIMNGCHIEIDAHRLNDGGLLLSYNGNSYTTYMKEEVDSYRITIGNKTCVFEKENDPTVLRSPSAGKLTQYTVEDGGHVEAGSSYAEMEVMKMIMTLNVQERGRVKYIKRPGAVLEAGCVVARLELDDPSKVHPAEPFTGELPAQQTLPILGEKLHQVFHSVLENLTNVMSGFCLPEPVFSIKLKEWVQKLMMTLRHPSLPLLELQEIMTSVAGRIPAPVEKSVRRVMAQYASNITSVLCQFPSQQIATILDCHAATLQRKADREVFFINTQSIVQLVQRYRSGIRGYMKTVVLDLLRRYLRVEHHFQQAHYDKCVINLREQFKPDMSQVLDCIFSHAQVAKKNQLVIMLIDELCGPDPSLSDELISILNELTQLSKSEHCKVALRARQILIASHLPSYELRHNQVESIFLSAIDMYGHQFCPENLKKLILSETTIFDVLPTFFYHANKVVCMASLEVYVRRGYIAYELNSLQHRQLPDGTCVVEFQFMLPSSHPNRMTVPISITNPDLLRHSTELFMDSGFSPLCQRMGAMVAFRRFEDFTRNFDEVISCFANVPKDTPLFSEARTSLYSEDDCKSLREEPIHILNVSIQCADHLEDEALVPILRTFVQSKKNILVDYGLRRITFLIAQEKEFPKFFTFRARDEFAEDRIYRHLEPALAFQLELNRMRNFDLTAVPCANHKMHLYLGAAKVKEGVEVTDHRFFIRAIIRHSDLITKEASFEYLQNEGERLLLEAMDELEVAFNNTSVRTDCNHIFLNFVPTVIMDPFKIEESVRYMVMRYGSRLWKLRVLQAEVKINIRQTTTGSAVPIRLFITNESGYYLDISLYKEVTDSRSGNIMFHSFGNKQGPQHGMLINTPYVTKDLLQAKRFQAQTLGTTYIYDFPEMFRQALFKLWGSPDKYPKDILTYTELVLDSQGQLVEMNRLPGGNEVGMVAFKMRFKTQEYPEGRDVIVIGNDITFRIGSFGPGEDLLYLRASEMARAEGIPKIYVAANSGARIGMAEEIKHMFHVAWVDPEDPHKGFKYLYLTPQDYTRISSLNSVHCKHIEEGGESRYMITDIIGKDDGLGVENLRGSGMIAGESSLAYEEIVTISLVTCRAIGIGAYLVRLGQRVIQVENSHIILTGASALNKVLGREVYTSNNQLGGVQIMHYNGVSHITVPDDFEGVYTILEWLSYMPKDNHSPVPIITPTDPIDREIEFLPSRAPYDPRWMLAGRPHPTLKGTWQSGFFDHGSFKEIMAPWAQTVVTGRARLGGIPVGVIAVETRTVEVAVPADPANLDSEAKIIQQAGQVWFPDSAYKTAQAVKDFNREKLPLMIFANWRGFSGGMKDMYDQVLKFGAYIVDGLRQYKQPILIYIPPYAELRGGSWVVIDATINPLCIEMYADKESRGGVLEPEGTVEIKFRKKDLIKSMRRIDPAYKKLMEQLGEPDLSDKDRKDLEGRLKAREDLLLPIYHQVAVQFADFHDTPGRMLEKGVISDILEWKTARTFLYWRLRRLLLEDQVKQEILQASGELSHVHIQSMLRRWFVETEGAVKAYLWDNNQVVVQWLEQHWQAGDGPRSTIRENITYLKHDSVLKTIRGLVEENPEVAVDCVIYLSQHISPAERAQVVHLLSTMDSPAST
structure (smiles),measurement,setting,value
CC(=O)N[C@@H](C)CC[C@H]1OC[C@H](Oc2nc3c(F)cc(OC4CC4)cc3n2C)CO1 [Compound I-13],IC50,recombinant human ACC2,6.6 nM
same,"tissue Kp value (tissue/plasma), liver",Tissue distribution test,4.06
same,"tissue Kp value (tissue/plasma), muscles",Tissue distribution test,0.918
same,"Malonyl-CoA concentration in organ with vehicle administration group defined as 100%, Liver",[1]; 0.3 mg/kg oral,90.9%
same,"Malonyl-CoA concentration in organ with vehicle administration group defined as 100%, Muscle",[1]; 0.3 mg/kg oral,72.8%
same,"Malonyl-CoA concentration in organ with vehicle administration group defined as 100%, Liver",[1]; 1 mg/kg oral,86.5%
same,"Malonyl-CoA concentration in organ with vehicle administration group defined as 100%, Muscle",[1]; 1 mg/kg oral,64.9%
same,"Malonyl-CoA concentration in organ with vehicle administration group defined as 100%, Liver",[1]; 3 mg/kg oral,79.9%
same,"Malonyl-CoA concentration in organ with vehicle administration group defined as 100%, Muscle",[1]; 3 mg/kg oral,58.4%
same,malonyl-CoA concentrations in the liver and muscles (in words),[1],reduced malonyl-CoA concentrations in the liver and muscles in a compound dose-dependent manner
same,Amount of triglyceride in liver,[2]; 15 mg/kg,179 ± 6.8 mg/g tissue
same,Sirius red-positive area rate,[2]; 15 mg/kg,1.33 ± 0.20%
same,3-hydroxybutyric acid in plasma,"[2]; 15 mg/kg, Week 0",298 ± 27
same,Plasma triglyceride concentration,"[2]; 15 mg/kg, Week 0",61.6 ± 3.1 mg/dL
same,3-hydroxybutyric acid in plasma,"[2]; 15 mg/kg, Week 1",396 ± 30
same,Plasma triglyceride concentration,"[2]; 15 mg/kg, Week 1",23.7 ± 1.0 mg/dL
same,3-hydroxybutyric acid in plasma,"[2]; 15 mg/kg, Week 3",797 ± 48
same,Plasma triglyceride concentration,"[2]; 15 mg/kg, Week 3",19.8 ± 1.2 mg/dL
same,3-hydroxybutyric acid in plasma,"[2]; 15 mg/kg, Week 5",616 ± 37
same,Plasma triglyceride concentration,"[2]; 15 mg/kg, Week 5",19.0 ± 1.7 mg/dL
same,3-hydroxybutyric acid in plasma,"[2]; 15 mg/kg, Week 7",501 ± 28
same,Plasma triglyceride concentration,"[2]; 15 mg/kg, Week 7",18.8 ± 1.2 mg/dL
same,"gene expression level in the liver, Fasn",[2]; 15 mg/kg,0.82 ± 0.20
same,"gene expression level in the liver, Srebf1",[2]; 15 mg/kg,0.70 ± 0.19
same,Amount of triglyceride in liver,[2]; 45 mg/kg,155 ± 7.1 mg/g tissue
same,Sirius red-positive area rate,[2]; 45 mg/kg,1.06 ± 0.10 %
same,3-hydroxybutyric acid in plasma,"[2]; 45 mg/kg, Week 0",369 ± 28
same,Plasma triglyceride concentration,"[2]; 45 mg/kg, Week 0",63.6 ± 3.7 mg/dL
same,3-hydroxybutyric acid in plasma,"[2]; 45 mg/kg, Week 1",378 ± 28
same,Plasma triglyceride concentration,"[2]; 45 mg/kg, Week 1",22.4 ± 2.5 mg/dL
same,3-hydroxybutyric acid in plasma,"[2]; 45 mg/kg, Week 3",688 ± 72
same,Plasma triglyceride concentration,"[2]; 45 mg/kg, Week 3",18.9 ± 1.4 mg/dL
same,3-hydroxybutyric acid in plasma,"[2]; 45 mg/kg, Week 5",564 ± 77
same,Plasma triglyceride concentration,"[2]; 45 mg/kg, Week 5",16.5 ± 1.7 mg/dL
same,3-hydroxybutyric acid in plasma,"[2]; 45 mg/kg, Week 7",462 ± 45
same,Plasma triglyceride concentration,"[2]; 45 mg/kg, Week 7",15.1 ± 1.0 mg/dL
same,"gene expression level in the liver, Fasn",[2]; 45 mg/kg,0.59 ± 0.09
same,"gene expression level in the liver, Srebf1",[2]; 45 mg/kg,0.34 ± 0.05
same,Sirius red-positive area rate vs vehicle administration group (in words),[2]; dose of 45 mg/kg,significantly lower than that of the vehicle administration group
same,amount of triglyceride in the liver vs vehicle administration group (in words),[2]; dose of 45 mg/kg,significantly lower than that of the vehicle administration group
same,Srebf1 and Fas in the liver (in words),"[2]; mouse, in vivo",no increase in Srebf1 and Fas in the liver was observed
same,concentration of 3-hydroxybutyric acid in plasma vs vehicle administration group (in words),"[2]; mouse, in vivo",higher than that in the vehicle administration group
same,plasma triglyceride concentration vs vehicle administration group (in words),"[2]; mouse, in vivo",lower than that in the vehicle administration group
C[C@@H](CO[C@H]1CC[C@H](Oc2nc3c(F)cc(OC4CC4)cc3n2C)CC1)NC(N)=O [Compound I-12],IC50,recombinant human ACC2,5.6 nM
same,"tissue Kp value (tissue/plasma), liver",Tissue distribution test,6.10
same,"tissue Kp value (tissue/plasma), muscles",Tissue distribution test,1.29
same,"Malonyl-CoA concentration in organ with vehicle administration group defined as 100%, Liver",[1]; 0.67 mg/kg oral,92.8%
same,"Malonyl-CoA concentration in organ with vehicle administration group defined as 100%, Muscle",[1]; 0.67 mg/kg oral,70.8%
same,"Malonyl-CoA concentration in organ with vehicle administration group defined as 100%, Liver",[1]; 2 mg/kg oral,91.1%
same,"Malonyl-CoA concentration in organ with vehicle administration group defined as 100%, Muscle",[1]; 2 mg/kg oral,59.5%
same,"Malonyl-CoA concentration in organ with vehicle administration group defined as 100%, Liver",[1]; 6 mg/kg oral,84.0%
same,"Malonyl-CoA concentration in organ with vehicle administration group defined as 100%, Muscle",[1]; 6 mg/kg oral,56.4%
same,malonyl-CoA concentrations in the liver and muscles (in words),[1],reduced malonyl-CoA concentrations in the liver and muscles in a compound dose-dependent manner
same,Amount of triglyceride in liver,[2]; 3 mg/kg,157 ± 7.3 mg/g tissue
same,Sirius red-positive area rate,[2]; 3 mg/kg,3.47 ± 0.41%
same,3-hydroxybutyric acid in plasma,"[2]; 3 mg/kg, Week 2",128 ± 23
same,Plasma triglyceride concentration,"[2]; 3 mg/kg, Week 2",32.9 ± 1.3 mg/dL
same,3-hydroxybutyric acid in plasma,"[2]; 3 mg/kg, Week 4",155 ± 31
same,Plasma triglyceride concentration,"[2]; 3 mg/kg, Week 4",22.4 ± 2.1 mg/dL
same,3-hydroxybutyric acid in plasma,"[2]; 3 mg/kg, Week 7",108 ± 31
same,Plasma triglyceride concentration,"[2]; 3 mg/kg, Week 7",27.2 ± 1.5 mg/dL
same,Amount of triglyceride in liver,[2]; 10 mg/kg,137 ± 7.2 mg/g tissue
same,Sirius red-positive area rate,[2]; 10 mg/kg,4.46 ± 0.69%
same,3-hydroxybutyric acid in plasma,"[2]; 10 mg/kg, Week 2",136 ± 23
same,Plasma triglyceride concentration,"[2]; 10 mg/kg, Week 2",30.4 ± 2.2 mg/dL
same,3-hydroxybutyric acid in plasma,"[2]; 10 mg/kg, Week 4",292 ± 27
same,Plasma triglyceride concentration,"[2]; 10 mg/kg, Week 4",21.5 ± 1.8 mg/dL
same,3-hydroxybutyric acid in plasma,"[2]; 10 mg/kg, Week 7",119 ± 34
same,Plasma triglyceride concentration,"[2]; 10 mg/kg, Week 7",22.1 ± 1.9 mg/dL
same,Amount of triglyceride in liver,[2]; 30 mg/kg,144 ± 7.5 mg/g tissue
same,Sirius red-positive area rate,[2]; 30 mg/kg,2.29 ± 0.32 %
same,3-hydroxybutyric acid in plasma,"[2]; 30 mg/kg, Week 2",189 ± 33
same,Plasma triglyceride concentration,"[2]; 30 mg/kg, Week 2",23.1 ± 2.5 mg/dL
same,3-hydroxybutyric acid in plasma,"[2]; 30 mg/kg, Week 4",292 ± 82
same,Plasma triglyceride concentration,"[2]; 30 mg/kg, Week 4",11.1 ± 1.1 mg/dL
same,3-hydroxybutyric acid in plasma,"[2]; 30 mg/kg, Week 7",187 ± 28
same,Plasma triglyceride concentration,"[2]; 30 mg/kg, Week 7",16.2 ± 1.6 mg/dL
same,Sirius red-positive area rate vs vehicle administration group (in words),[2]; dose of 30 mg/kg,significantly lower than that of the vehicle administration group
same,amount of triglyceride in the liver vs vehicle administration group (in words),[2]; dose of 10 or 30 mg/kg,significantly lower than that of the vehicle administration group
same,concentration of 3-hydroxybutyric acid in plasma vs vehicle administration group (in words),"[2]; mouse, in vivo",higher than that in the vehicle administration group
same,plasma triglyceride concentration vs vehicle administration group (in words),"[2]; mouse, in vivo",lower than that in the vehicle administration group
